Reference: article PMC6522524 (Nature Communications, 2019)
Entries after “also recorded” stand apart in the source; their conditions may differ. Where two headings read alike, the source gives them in different places.

Key:
[1] = system: HBV (ayw subtype, genotype D) replicon in HepG2.2.15 cells; assay: microbe, parasite or virus in culture; type: cell-based, Hepatitis B virus; details: Hepatitis B virus
[2] = system: HBV (pHBV1.2× adr) in transfected HepG2 cells; assay: microbe, parasite or virus in culture; type: cell-based, Hepatitis B virus; details: Hepatitis B virus, HepG2, 144 h; HBV1.2× adr transfected cells, 6 days; read-out: IC50, HBV DNA secretion
[3] = system: HBV pgRNA/precore RNA in HepG2.2.15 cells; type: cell-based, Hepatitis B virus
Procedure: Fig. 1 Effect of FDA-approved compounds on HBV replication. a Schematic depiction of the primary screening analysis. HepG2.2.15 cells, which were stably transfected with HBV replicons, were treated with 978 FDA-approved drugs (1 μM) for 3 days. Entecavir (ETV) (1 μM) served as positive control. […] Quantitative RT-PCR was performed after 6 days of incubation. d Effect of the 19 candidates on intracellular HBV capsid assembly. Huh-7 cells were transfected with pCDNA3-Core and exposed after 12 h to the 19 candidates (1 μM) for 36 h. The cells were lysed and assembled HBV core particles were isolated by sucrose step gradient ultracentrifugation, resolved on 1% agarose gels, and subjected to immunoblot analysis with anti-HBV core antibody.
Quantitative RT-PCR with primers that detect three HBV regions (R1, R2, and R3, Supplementary Table 1) was used to measure HBV transcription. This RT-PCR detects pgRNA and precore RNA (3.5 kB), two HBV surface-encoding RNAs (2.5 kB and 2.1 kB), and HBx-encoding RNA (0.7 kB)[55]. PCR conditions were 95 °C for 10 min initially, then 50 cycles of 95 °C for 30 s, 60 °C for 60 s and 72 °C for 30 s, and finally 1 cycle of 95 °C for 60 s, 55 °C for 30 s and 95 °C for 30 s.
a Schematic depiction of the R1, R2, and R3 regions of the HBV genome that were targeted by
quantitative RT-PCR to quantitate the transcription of pgRNA, two HBV surface RNAs, and HBx RNA.
pGL3/HBV pgRNA promoter or pGL3/HBV sRNA promoter. The data shown in (b – d) represent two

[4] = molecular target: HBV core protein (pCDNA3-Core, Y118 wild-type) in Huh-7 cells (Hepatitis B virus genotype C, UniProt P0C6H6); assay: cell-based; type: cell-based
in vitro [5] = type: cell-based, human; details: human, Cell viability(%)
Procedure: Supplementary Fig. 11. Effect of FBS serum iron level on Huh-7, HepG2, and HepG2.2.15 cell
a Cells were maintained in medium supplemented with 2% FBS or 10% FBS for 1 day and treated with
After 6 days, cytotoxicity was measured. b Cells were treated with
the ± SD. *p < 0.05 by unpaired two-tailed Student’s t-test.

[6] = system: HBsAg in HepG2.2.15 cells; assay: Secreted HBsAg ELISA, HepG2.2.15 cells; type: cell-based, Hepatitis B virus
Procedure: (§1) Secreted HBsAg (f, i respectively) was quantified by ELISA.
(§2) An HBsAg ELISA kit (KA0286, Abnova) was used to quantify HBsAg protein. Briefly, culture media were incubated in individual wells of the capture plates for 2 h. After washing, horseradish peroxidase-labeled rabbit anti-HBV surface antibody was added, followed by incubation for an additional 2 h. The substrate solution was added for 15–60 min and absorbance at 450 nm was measured.

[7] = system: HBsAg in HepG2 cells transfected with pHBV1.2×; assay: Secreted HBsAg ELISA, HepG2 cells transfected with pHBV1.2×; type: cell-based, Hepatitis B virus
Procedure: as §1, §2

HepG2.2.15 cells = details: 0.1–10 μM, 6 days
patients = details: cited from earlier work
in vitro [8] = details: human, Cell viability(%)
in vitro [9] = details: human, Cell viability(%); remark: listed apart in the source
[10] = system: HBV (genotype D) in Huh-7-NTCP cells; assay: In vitro HBV infection model, Huh-7-NTCP cells: secreted HBV DNA
Procedure: To isolate the secreted HBV DNA, culture media were collected and centrifuged at 15,000 × g to remove debris. The medium was diluted 1:1 with phosphate-buffered saline (PBS), and 1 M NaOH solution was added to a final concentration of 0.1 M. The mixture was incubated at 37 °C for 1 h. Protein was denatured by adding 2 M Tris-HCl (pH 7.5) solution to a final concentration of 0.2 M and incubating the mixture at 98 °C for 5 min. The protein precipitate was removed by centrifugation at 15,000 × g, and the supernatant was subjected to PCR with an HBV DNA primer and probe set (Supplementary Table 1). […] To isolate intracellular HBV DNA, the cells were lysed on ice with lysis buffer (50 mM Tris-HCl, pH 7.5, 1 mM EDTA, 1% NP40) for 10 min. After removing cell debris and nuclei by centrifugation at 15,000 × g, the supernatant was treated with micrococcal nuclease (0.25 U per μL, M0247, New England Biolabs) at 37 °C for 1 h. The micrococcal nuclease was then inactivated by adding EGTA to a final concentration of 10 mM. Thereafter intracellular HBV DNA was extracted with a G-spin^TM total kit (17046, Intron). The isolated intracellular HBV DNA was subjected to PCR with an HBV DNA primer and probe set (Supplementary Table 1). cccDNA was isolated by the Hirt extraction method[54]. […]

[11] = HepG2.2.15, 144 h, read-out: Relative secreted HBV DNA level (Folds), AVERAGE
[12] = HepG2.2.15, 144 h, read-out: Relative secreted HBV DNA level (Folds), individual samples
[13] = Huh-7, read-out: Relative intensity (Folds), intracellular capsid, AVERAGE
[14] = Huh-7, read-out: Relative intensity (Folds), intracellular capsid, individual samples

HBV core protein (pCDNA3-Core, Y118 wild-type) in Huh-7 cells, sequence (P0C6H6 whole entry): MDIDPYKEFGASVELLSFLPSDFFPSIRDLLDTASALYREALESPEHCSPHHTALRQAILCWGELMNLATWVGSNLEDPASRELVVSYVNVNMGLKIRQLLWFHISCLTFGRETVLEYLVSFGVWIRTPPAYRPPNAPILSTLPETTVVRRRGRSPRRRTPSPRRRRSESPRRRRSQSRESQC

`Cc1cc(C2CCCCC2)n(O)c(=O)c1` [Ciclopirox, 6-cyclohexyl-1-hydroxy-4-methyl-2(1 H)-pyridone] showed an inhibition at 1 µM ([1]; HepG2.2.15, 72 h, read-out: % of inhibition (ETV =100%), initial screening (3days)) of 142%, an inhibition at 1 µM ([1]; HepG2.2.15, 144 h, read-out: % of inhibition (ETV =100%), confirmation (6days)) of 88.6% and an IC50 ([1]; HepG2.2.15, 144 h, read-out: IC50, HBV DNA secretion) of 880 ± 70 nM. It also gave an activity at 0.1 µM [1, 11] of 102%, an activity at 0.2 µM [1, 11] of 81.1% and an activity at 0.5 µM [1, 11] of 52.1%. The activity at 1 µM [1, 11] was 51.6%, the activity at 2 µM [1, 11] was 29.1% and the activity at 5 µM [1, 11] was 23.5%. The activity at 10 µM [1, 11] was 4.49%, the activity at 0.1 µM [1, 12] was 102% and the activity at 0.2 µM [1, 12] was 83%. The activity at 0.5 µM [1, 12] was 48.1%, the activity at 1 µM [1, 12] was 49.9% and the activity at 2 µM [1, 12] was 29%. For the same compound, the IC50 [2] was 750 ± 150 nM, the “HBV transcripts levels” value [3] was “no effect” and the “intracellular HBV capsid assembly” value [4] was “inhibited HBV capsid assembly; also recorded: affected intracellular HBV capsid assembly”. For the same compound, the activity at 0.1 µM [4, 13] was 92.1%, the activity at 0.5 µM [4, 13] was 95.1% and the activity at 1 µM [4, 13] was 82.9%. It also gave an activity at 5 µM [4, 13] of 20.4%, an activity at 10 µM [4, 13] of 2.39% and an activity at 0.1 µM [4, 14] of 90%. For the same compound, the activity at 0.5 µM [4, 14] was 92.6%, the activity at 5 µM [4, 14] was 17.9% and the activity at 10 µM [4, 14] was 2.39%. It also gave a viability at 0.1 µM (in vitro [5]; AVERAGE) of 100%, a viability at 0.2 µM (in vitro [5]; AVERAGE) of 100% and a viability at 0.5 µM (in vitro [5]; AVERAGE) of 99.6%. For the same compound, the viability at 1 µM (in vitro [5]; AVERAGE) was 99.1%, the viability at 2 µM (in vitro [5]; AVERAGE) was 97.4% and the viability at 5 µM (in vitro [5]; AVERAGE) was 95.2%. It also gave a viability at 10 µM (in vitro [5]; AVERAGE) of 93.6%, a viability at 0.1 µM (in vitro [5]; individual samples) of 99.9% and a viability at 0.2 µM (in vitro [5]; individual samples) of 99.6%. The viability at 0.5 µM (in vitro [5]; individual samples) was 99.4%, the viability at 1 µM (in vitro [5]; individual samples) was 98.9% and the viability at 2 µM (in vitro [5]; individual samples) was 97%. The viability at 5 µM (in vitro [5]; individual samples) was 93%, the viability at 10 µM (in vitro [5]; individual samples) was 93.5% and the “HBsAg production” value [6] was “no effect”. For the same compound, the “HBsAg production” value [7] was “no effect”, the “cytotoxicity” value (HepG2.2.15 cells) was “no significant cytotoxicity” and the Dose-limiting gastrointestinal toxicities (patients; 80 mg per m^2 four times daily, oral) was “Dose-limiting gastrointestinal toxicities were observed”. For the same compound, the “anti-apoptotic gene expression in peripheral blood cells” value (patients; once daily >10 mg per m^2, oral) was “suppressed anti-apoptotic gene expression in peripheral blood cells”, the viability at 0.1 µM (in vitro [8]; AVERAGE) was 98.8% and the viability at 0.2 µM (in vitro [8]; AVERAGE) was 102%. For the same compound, the viability at 0.5 µM (in vitro [8]; AVERAGE) was 97.7%, the viability at 1 µM (in vitro [8]; AVERAGE) was 98.7% and the viability at 2 µM (in vitro [8]; AVERAGE) was 99.1%. For the same compound, the viability at 0.1 µM (in vitro [8]; individual samples) was 98.8%, the viability at 0.2 µM (in vitro [8]; individual samples) was 102% and the viability at 0.5 µM (in vitro [8]; individual samples) was 97.6%. It also gave a viability at 1 µM (in vitro [8]; individual samples) of 98.6%, a viability at 2 µM (in vitro [8]; individual samples) of 99% and a viability at 0.1 µM (in vitro [9]; AVERAGE) of 99.9%. It also gave a viability at 0.2 µM (in vitro [9]; AVERAGE) of 99.2%, a viability at 0.5 µM (in vitro [9]; AVERAGE) of 99.4% and a viability at 1 µM (in vitro [9]; AVERAGE) of 99.9%. The viability at 2 µM (in vitro [9]; AVERAGE) was 99.4%, the viability at 5 µM (in vitro [9]; AVERAGE) was 99.2% and the viability at 10 µM (in vitro [9]; AVERAGE) was 99.8%. It also gave a viability at 0.1 µM (in vitro [9]; individual samples) of 98.9%, a viability at 0.2 µM (in vitro [9]; individual samples) of 95.7% and a viability at 0.5 µM (in vitro [9]; individual samples) of 98.9%. It also gave a viability at 1 µM (in vitro [9]; individual samples) of 99.9%, a viability at 2 µM (in vitro [9]; individual samples) of 99.6% and a viability at 5 µM (in vitro [9]; individual samples) of 97.6%. For the same compound, the viability at 10 µM (in vitro [9]; individual samples) was 99.9% and the “secretion of HBV DNA” value [10] was “dropped markedly”.
